From a melting point compilation (Tetko et al.)

| Compound | melting point |
| --- | --- |
| CC1CCc2c(sc3nc(CN4CCOCC4)nc(Cl)c23)C1 (stereo not drawn) | 55 to 57 °C |
| Nc1ccc(Oc2ccc(Cl)cn2)cc1 | 70 to 72 °C |
| Nc1c(C(=O)O)ccnc1Cl | 249 to 251 °C |
| O=C1CC2(CCCCC2)C(=O)N1 | 132 to 140 °C |
| CC(C)C(=O)Nc1ccc(O)cc1 | 158 to 160 °C |
| COc1cccc(NC(=O)COc2ccc(C(=O)O)cc2)c1 | 131 to 134 °C |
| CC(C)n1ncc2cc(S(N)(=O)=O)ccc21 | 168 to 170 °C |
| CCOc1ccc(NC(N)=S)cc1 | 164 to 166 °C |
| Cn1cc(-c2nnc(N)o2)cn1 | 253 to 255 °C |
| N#Cc1cc(C(F)(F)F)ccc1O | 152 to 154 °C |
| O=C(O)c1cccc(S(=O)(=O)CC(F)F)c1 | 170 to 172 °C |
| CC(=O)c1ccc(OC(C)C(=O)O)cc1 (stereo not drawn) | 158 to 161 °C |
| Cc1n[nH]c(=O)c(C(=O)O)c1C | 179 to 181 °C |
| CC(Cl)C(=O)NC(C)c1ccc(Cl)cc1 (stereo not drawn) | 127 to 129 °C |
| N#Cc1c[nH]c(C(=O)C(Cl)(Cl)Cl)c1 | 134 to 136 °C |
| OCc1ncc(-c2ccc(F)cc2)o1 | 81 to 83 °C |
| O=C(O)c1cnc(-c2ccccc2)s1 | 187 to 189 °C |
| CC1=CC(=C2Nc3cc(F)ccc3N2C(C)C)C=CC1=N | 136 to 138 °C |
| O=Cc1ccc(OC(F)(F)C(=O)O)cc1 | 146 to 148 °C |
| Nc1ncc(CCC(=O)O)s1 | 195 to 197 °C |
| Nc1cc(C(=O)O)cnc1Cl | 199 to 201 °C |
| CC(=O)c1nc2cc(Cl)ccc2n1C | 96 to 98 °C |
| O=C(CCCl)Nc1ccc(Br)cc1 | 126 to 128 °C |
| Cc1ncncc1C(=O)O | 174 to 176 °C |
| Cc1ccc(CNC(=O)CCl)cc1 | 117 to 119 °C |

| Compound | melting point |
| --- | --- |
| CC1CN(C(=O)CC#N)CC(C)O1 (stereo not drawn) | 125 to 127 °C |
| CCCn1c(=O)[nH]c(=O)c2cc(C(=O)O)cnc21 | 235 to 237 °C |
| NCc1ccc(NC(=O)c2ccco2)cc1 | 102 to 104 °C |
| Nc1nc(-c2ccccc2)c(-c2ccccc2)s1 | 181 to 183 °C |
| Cc1cc2ccccc2n1CC(=O)O | 184 to 186 °C |
| CCCCCCOC(=O)c1ccc(N)cc1 | 59 to 61 °C |
| Nc1ccc2c(c1)CC(=O)N2 | 190 to 192 °C |
| CC(c1ccncc1)n1nccc1N (stereo not drawn) | 279 to 281 °C |
| Nc1ccnc(Sc2ccccn2)c1 | 99 to 101 °C |
| O=Cc1cn(-c2ccc(F)c(Cl)c2)nn1 | 148 to 150 °C |
| CC1(O)CCc2ccccc21 (stereo not drawn) | 56 to 58 °C |
| O=C1CCN(C2CC2)CCN1 | 98 to 100 °C |
| Nc1cccc(CNC(=O)Nc2ccccc2Cl)c1 | 177 to 179 °C |
| N#Cc1ccc(OCc2ccccc2)nc1 | 71 to 73 °C |
| CSc1nccn1-c1cccc(C(=O)O)c1 | 225 to 227 °C |
| CCCN(C)S(N)(=O)=O | 32 to 34 °C |
| O=C(O)c1cc(-c2ccccc2)nc2onc(C3CC3)c12 | 199 to 201 °C |
| CCCCc1ccc(Nc2nnc(S)s2)cc1 | 124 to 126 °C |
| CC(C)C(Br)C(N)=O (stereo not drawn) | 131 to 133 °C |
| O=C(/C=C/c1ccccc1)c1ccc(Br)cc1 | 104 to 106 °C |
| N#CCc1nc(C23CC4CC(CC(C4)C2)C3)cs1 | 57 to 59 °C |
| Cc1ccc(-n2nc(C)cc2N)cc1 | 118 to 120 °C |
| CCC(CC)n1nc(C)cc1C(=O)O | 149 to 151 °C |
| COc1ccccc1NC1=NCC(C)S1 (stereo not drawn) | 92 to 97 °C |
| O=C(Cc1ccccc1)Nc1ccccc1C(=O)O | 192 to 194 °C |

| Compound | melting point |
| --- | --- |
| O=C(CCl)NCCC(c1ccccc1)c1ccccc1 | 104 to 107 °C |
| NNC(=O)Cc1nc(-c2ccccc2)cs1 | 135 to 140 °C |
| CC1(O)CCc2ccccc2C1 (stereo not drawn) | 39 to 41 °C |
| Cc1nnc(-c2ccc(C(=O)O)cc2)[nH]1 | 272 to 274 °C |
| Cc1[nH]c(=O)[nH]c1C | 239 to 241 °C |
| O=C(O)c1ccc(Cl)c(S(=O)(=O)N2CCCCC2)c1 | 218 to 220 °C |
| O=C1CCc2c(F)ccc(F)c21 | 117 to 119 °C |
| CSc1nn(C)c2nc[nH]c(=O)c12 | 251 to 253 °C |
| NS(=O)(=O)c1cc(C(=O)O)cc([N+](=O)[O-])c1Cl | 143 to 147 °C |
| CCN1C(=O)C(=O)c2ccc(Br)cc21 | 118 to 120 °C |
| O=C(CCl)NCC(=O)Nc1ccc(F)c(F)c1F | 160 to 162 °C |
| CC(O)c1cn(CC(=O)O)nn1 (stereo not drawn) | 134 to 136 °C |
| Nc1cc(-c2cccc(F)c2F)n[nH]1 | 117 to 119 °C |
| CC(C)(O)c1ccc2[nH]ccc2c1 | 110 to 112 °C |
| O=S(=O)(c1ccc(Cl)nc1)N1CCCCC1 | 130 to 132 °C |
| CC(C)(C(=O)O)c1ccccc1Cl | 111 to 113 °C |
| Nc1ccc(C(=O)N2CC(=O)Nc3ccccc32)cc1 | 286 to 288 °C |
| CCCc1noc2nc(C)cc(C(=O)O)c12 | 169 to 171 °C |
| CC(C)c1ccc(-c2cc(N)on2)cc1 | 113 to 115 °C |
| COCCN(C)S(N)(=O)=O | 34 to 36 °C |
| CCOC(=O)COc1cccc(Br)c1 | 40 to 42 °C |
| CC(=O)Nc1ccc(C)c(S(=O)(=O)Cl)c1 | 95 to 97 °C |
| NC(=O)Nc1ccc([N+](=O)[O-])cc1 | 224 to 226 °C |
